Laboratory results as given in ChEMBL document CHEMBL3352542, “Synthesis, biological evaluation and molecular modeling study of 2-(1,3,4-thiadiazolyl-thio and 4-methyl-thiazolyl-thio)-quinazolin-4-ones as a new class of DHFR inhibitors” (Bioorg Med Chem Lett, 2014).
Activity calls are given as the source filed them. No cut-off for these calls is given here.

Tests used:
Bacillus subtilis [1] = assay: Antimicrobial activity against Bacillus subtilis assessed as inhibition zone at 200 ug/disk after 24 hrs by disc-diffusion method; assay type: functional; conditions: read-out: IZ
SK-MEL-28 = assay: Growth inhibition of human SK-MEL-28 cells at 10 uM after 48 hrs; assay type: functional, cell-based
Dihydrofolate reductase = molecular target: T1, Dihydrofolate reductase (Bos taurus, UniProt P00376); assay: Inhibition of bovine liver DHFR
T1 sequence (P00376 whole entry): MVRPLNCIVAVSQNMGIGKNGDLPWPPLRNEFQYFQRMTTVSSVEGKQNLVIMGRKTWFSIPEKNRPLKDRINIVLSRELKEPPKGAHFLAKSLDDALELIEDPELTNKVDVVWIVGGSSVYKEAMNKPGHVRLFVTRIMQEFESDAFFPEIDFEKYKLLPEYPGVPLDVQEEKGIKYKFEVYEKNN

T47D = assay: Growth inhibition of human T47D cells at 10 uM after 48 hrs; assay type: functional
MDA-MB-468 = assay: Growth inhibition of human MDA-MB-468 cells at 10 uM after 48 hrs; assay type: functional
SF-295 = assay: (§1) Growth inhibition of human SF295 cells at 10 uM after 48 hrs; assay type: functional
Malme-3M = assay: Growth inhibition of human MALME-3M cells at 10 uM after 48 hrs; assay type: functional
MDA-MB-231 = assay: Growth inhibition of human MDA-MB-231 cells at 10 uM after 48 hrs; assay type: functional
HCT-15 = assay: (§2) Growth inhibition of human HCT15 cells at 10 uM after 48 hrs; assay type: functional
Staphylococcus aureus [2] = assay: Antimicrobial activity against Staphylococcus aureus assessed as inhibition of visible growth after 24 hrs by disc-diffusion method; assay type: functional, organism-based
786-0 = assay: Growth inhibition of human 786-0 cells at 10 uM after 48 hrs; assay type: functional
Escherichia coli [3] = assay: Antimicrobial activity against Escherichia coli assessed as inhibition zone at 200 ug/disk after 24 hrs by disc-diffusion method; assay type: functional; conditions: read-out: IZ
Escherichia coli [4] = assay: Antimicrobial activity against Escherichia coli assessed as inhibition of visible growth after 24 hrs by disc-diffusion method; assay type: functional, organism-based
Bacillus subtilis [5] = assay: Antimicrobial activity against Bacillus subtilis assessed as inhibition of visible growth after 24 hrs by disc-diffusion method; assay type: functional, organism-based
SK-MEL-5 = assay: Growth inhibition of human SK-MEL-5 cells at 10 uM after 48 hrs; assay type: functional
SF-539 = assay: Growth inhibition of human SF539 cells at 10 uM after 48 hrs; assay type: functional
SNB-19 = assay: Growth inhibition of human SNB19 cells at 10 uM after 48 hrs; assay type: functional
UACC-62 = assay: Growth inhibition of human UACC62 cells at 10 uM after 48 hrs; assay type: functional
PC-3 = assay: (§3) Growth inhibition of human PC3 cells at 10 uM after 48 hrs; assay type: functional
Staphylococcus aureus [6] = assay: Antimicrobial activity against Staphylococcus aureus assessed as inhibition zone at 200 ug/disk after 24 hrs by disc-diffusion method; assay type: functional; conditions: read-out: IZ
UACC-257 = assay: (§4) Growth inhibition of human UACC257 cells at 10 uM after 48 hrs; assay type: functional
SR = assay: Growth inhibition of human SR cells at 10 uM after 48 hrs; assay type: functional
HOP-62 = assay: Growth inhibition of human HOP62 cells at 10 uM after 48 hrs; assay type: functional
U-251 = assay: Growth inhibition of human U251 cells at 10 uM after 48 hrs; assay type: functional
HL-60(TB) = assay: Growth inhibition of human HL-60(TB) cells at 10 uM after 48 hrs; assay type: functional
Hs-578T = assay: (§5) Growth inhibition of human Hs 578T cells at 10 uM after 48 hrs; assay type: functional
HT-29 = assay: Growth inhibition of human HT-29 cells at 10 uM after 48 hrs; assay type: functional
MOLT-4 = assay: Growth inhibition of human MOLT4 cells at 10 uM after 48 hrs; assay type: functional
CCRF-CEM = assay: Growth inhibition of human CCRF-CEM cells at 10 uM after 48 hrs; assay type: functional
CAKI-1 = assay: Growth inhibition of human CAKI-1 cells at 10 uM after 48 hrs; assay type: functional
A498 = assay: Growth inhibition of human A498 cells at 10 uM after 48 hrs; assay type: functional
KM12 = assay: Growth inhibition of human KM12 cells at 10 uM after 48 hrs; assay type: functional
NCI-H226 = assay: Growth inhibition of human NCI-H226 cells at 10 uM after 48 hrs; assay type: functional
HOP-92 = assay: (§6) Growth inhibition of human HOP92 cells at 10 uM after 48 hrs; assay type: functional
OVCAR-4 = assay: Growth inhibition of human OVCAR4 cells at 10 uM after 48 hrs; assay type: functional
UO-31 = assay: (§7) Growth inhibition of human UO31 cells at 10 uM after 48 hrs; assay type: functional
NCI-H522 = assay: Growth inhibition of human NCI-H522 cells at 10 uM after 48 hrs; assay type: functional
HCT-116 = assay: Growth inhibition of human HCT116 cells at 10 uM after 48 hrs; assay type: functional
RPMI-8226 = assay: (§8) Growth inhibition of human RPMI8226 cells at 10 uM after 48 hrs; assay type: functional
MDA-MB-435 = assay: Growth inhibition of human MDA-MB-435 cells at 10 uM after 48 hrs; assay type: functional
Candida albicans = assay: Antimicrobial activity against Candida albicans assessed as inhibition zone at 200 ug/disk after 24 hrs by disc-diffusion method; assay type: functional; conditions: read-out: IZ
A549 = assay: Growth inhibition of human A549 cells at 10 uM after 48 hrs; assay type: functional
MCF7 = assay: Growth inhibition of human MCF7 cells at 10 uM after 48 hrs; assay type: functional
RXF 393 = assay: Growth inhibition of human RXF393 cells at 10 uM after 48 hrs; assay type: functional
Pseudomonas aeruginosa = assay: Antimicrobial activity against Pseudomonas aeruginosa assessed as inhibition zone at 200 ug/disk after 24 hrs by disc-diffusion method; assay type: functional; conditions: read-out: IZ
K562 = assay: Growth inhibition of human K562 cells at 10 uM after 48 hrs; assay type: functional
[7] = as §1; assay type: functional; conditions: SF-295, 48 h, read-out: GI
[8] = as §2; assay type: functional; conditions: HCT-15, 48 h, read-out: GI
[9] = as §3; assay type: functional; conditions: PC-3, 48 h, read-out: GI
[10] = as §4; assay type: functional; conditions: UACC-257, 48 h, read-out: GI
[11] = as §5; assay type: functional; conditions: read-out: GI
[12] = as §6; assay type: functional; conditions: HOP-92, 48 h, read-out: GI
[13] = as §7; assay type: functional; conditions: UO-31, 48 h, read-out: GI
[14] = as §8; assay type: functional; conditions: RPMI-8226, 48 h, read-out: GI

Cc1ccc2nc(Sc3nnc(N)s3)n(-c3ccc(Cl)cc3)c(=O)c2c1
zone of inhibition at 200 µg/disc (Bacillus subtilis [1]): 26 mm
growth inhibition (GI) (SK-MEL-28): inactive
IC50 (Dihydrofolate reductase): 700 nM
growth inhibition (GI) (T47D): inactive
growth inhibition (GI) (MDA-MB-468): inactive
growth inhibition (GI) (SF-295): inactive
growth inhibition (GI) (Malme-3M): inactive
growth inhibition (GI) (MDA-MB-231): inactive
growth inhibition (GI) (HCT-15): inactive
Activity (Staphylococcus aureus [2]): Active
growth inhibition (GI) (786-0): inactive
zone of inhibition at 200 µg/disc (Escherichia coli [3]): 18 mm
Activity (Escherichia coli [4]): Active
Activity (Bacillus subtilis [5]): Active
growth inhibition (GI) (SK-MEL-5): inactive
growth inhibition (GI) (SF-539): inactive
growth inhibition (GI) (SNB-19): inactive
growth inhibition (GI) (UACC-62): inactive
growth inhibition (GI) (PC-3): inactive
zone of inhibition at 200 µg/disc (Staphylococcus aureus [6]): 24 mm
growth inhibition (GI) (UACC-257): inactive
growth inhibition (GI) (SR): inactive
growth inhibition (GI) (HOP-62): inactive
growth inhibition (GI) (U-251): inactive
growth inhibition (GI) (HL-60(TB)): inactive
growth inhibition (GI) (Hs-578T): inactive
growth inhibition (GI) (HT-29): inactive
growth inhibition (GI) (MOLT-4): inactive
growth inhibition (GI) (CCRF-CEM): inactive
growth inhibition (GI) (CAKI-1): inactive
growth inhibition (GI) (A498): inactive
growth inhibition (GI) (KM12): inactive
growth inhibition (GI) (NCI-H226): inactive
growth inhibition (GI) (HOP-92): inactive
growth inhibition (GI) (OVCAR-4): inactive
growth inhibition (GI) (UO-31): inactive
growth inhibition (GI) (NCI-H522): inactive
growth inhibition (GI) (HCT-116): inactive
growth inhibition (GI) (RPMI-8226): inactive
growth inhibition (GI) (MDA-MB-435): inactive
zone of inhibition at 200 µg/disc (Candida albicans): 8 mm
growth inhibition (GI) (A549): inactive
growth inhibition (GI) (MCF7): inactive
growth inhibition (GI) (RXF 393): inactive
zone of inhibition at 200 µg/disc (Pseudomonas aeruginosa): 12 mm
growth inhibition (GI) (K562): inactive

Nc1nnc(Sc2nc3ccc(Cl)cc3c(=O)n2-c2ccc(Cl)cc2)s1
zone of inhibition at 200 µg/disc (Bacillus subtilis [1]): 20 mm
IC50 (Dihydrofolate reductase): 1000 nM
inhibition of growth at 10 µM (T47D; read-out: GI): 29.2%
inhibition of growth at 10 µM [7]: 20.6%
inhibition of growth at 10 µM [8]: 12.7%
Activity (Staphylococcus aureus [2]): Active
inhibition of growth at 10 µM (786-0; 786-0, 48 h, read-out: GI): 15.4%
zone of inhibition at 200 µg/disc (Escherichia coli [3]): 16 mm
Activity (Escherichia coli [4]): Active
Activity (Bacillus subtilis [5]): Active
inhibition of growth at 10 µM (SK-MEL-5; SK-MEL-5, 48 h, read-out: GI): 10.9%
inhibition of growth at 10 µM [9]: 14.1%
zone of inhibition at 200 µg/disc (Staphylococcus aureus [6]): 18 mm
inhibition of growth at 10 µM [10]: 12.3%
inhibition of growth at 10 µM (HOP-62; HOP-62, 48 h, read-out: GI): 16.7%
inhibition of growth at 10 µM (U-251; U-251, 48 h, read-out: GI): 11%
inhibition of growth at 10 µM [11]: 13.3%
inhibition of growth at 10 µM (A498; A498, 48 h, read-out: GI): 30.6%
inhibition of growth at 10 µM [12]: 53.7%
inhibition of growth at 10 µM [13]: 24.6%
inhibition of growth at 10 µM [14]: 12.1%
inhibition of growth at 10 µM (MDA-MB-435; MDA-MB-435, 48 h, read-out: GI): 10.8%
zone of inhibition at 200 µg/disc (Candida albicans): 8 mm
inhibition of growth at 10 µM (A549; A549, 48 h, read-out: GI): 11.1%
inhibition of growth at 10 µM (MCF7; MCF7, 48 h, read-out: GI): 12.7%
zone of inhibition at 200 µg/disc (Pseudomonas aeruginosa): 12 mm
